According to ChEMBL document CHEMBL1201862, “PubChem BioAssay data set” (2004):
Active and inactive are the calls of the source.

Legend:
[1] = target: sn-1-specific diacylglycerol lipase ABHD11 (Mus musculus, UniProt Q8K4F5); test: Late stage assay provider results from the probe development effort to identify inhibitors of LYPLA1 and LYPLA2: Gel-based Activity-Based Protein Profiling (ABPP) IC50 for off-target ABHD11. [Related pubchem assays (depositor defined):AID2174, AID2202, AID2203, AID2233, AID504482, AID504498, AID504505, AID504507, AID504510, AID504520, AID504522, AID504892]; type: functional
Sequence of sn-1-specific diacylglycerol lipase ABHD11 (Q8K4F5 whole entry): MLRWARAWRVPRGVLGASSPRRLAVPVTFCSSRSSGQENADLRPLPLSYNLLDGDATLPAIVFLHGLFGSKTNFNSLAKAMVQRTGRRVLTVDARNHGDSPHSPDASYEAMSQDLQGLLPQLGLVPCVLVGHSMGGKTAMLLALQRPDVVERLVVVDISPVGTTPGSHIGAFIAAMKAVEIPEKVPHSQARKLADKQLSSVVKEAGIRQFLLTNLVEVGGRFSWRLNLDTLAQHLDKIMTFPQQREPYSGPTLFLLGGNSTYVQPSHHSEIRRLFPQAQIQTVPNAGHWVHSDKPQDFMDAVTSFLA

[2] = target: T1, Platelet-activating factor acetylhydrolase 2, cytoplasmic (Mus musculus, UniProt Q8VDG7); test: Late stage assay provider results from the probe development effort to identify inhibitors of PAFAH2: fluorescence-based cell-based gel-based Activity-Based Protein Profiling (ABPP) IC50. [Related pubchem assays (depositor defined):AID492956, AID492969, AID493030]; type: functional
T1 sequence (Q8VDG7 whole entry): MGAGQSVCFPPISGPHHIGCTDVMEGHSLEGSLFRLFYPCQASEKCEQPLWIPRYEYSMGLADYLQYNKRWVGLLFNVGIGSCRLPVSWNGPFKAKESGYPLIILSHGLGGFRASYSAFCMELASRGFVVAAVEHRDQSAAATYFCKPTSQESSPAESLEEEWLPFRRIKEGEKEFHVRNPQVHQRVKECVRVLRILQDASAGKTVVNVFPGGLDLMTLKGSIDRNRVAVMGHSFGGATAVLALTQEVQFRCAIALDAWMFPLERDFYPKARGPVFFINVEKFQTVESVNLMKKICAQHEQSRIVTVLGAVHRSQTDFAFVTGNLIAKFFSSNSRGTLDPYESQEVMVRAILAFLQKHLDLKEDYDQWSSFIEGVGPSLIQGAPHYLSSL

[3] = target: T1, Platelet-activating factor acetylhydrolase 2, cytoplasmic; test: Late stage assay provider results from the probe development effort to identify inhibitors of PAFAH2: Fluorescence-based biochemical gel-based Activity-Based Protein Profiling (ABPP) IC50. [Related pubchem assays (depositor defined):AID492956, AID492969, AID493030]
[4] = target: T2, Dual specificity protein phosphatase 3 (Homo sapiens, UniProt P51452); test: VHR1 phosphatase inhibitors, primary screen, biochemical, absorbance, uHTS (AID 1654)
T2 sequence (P51452 whole entry): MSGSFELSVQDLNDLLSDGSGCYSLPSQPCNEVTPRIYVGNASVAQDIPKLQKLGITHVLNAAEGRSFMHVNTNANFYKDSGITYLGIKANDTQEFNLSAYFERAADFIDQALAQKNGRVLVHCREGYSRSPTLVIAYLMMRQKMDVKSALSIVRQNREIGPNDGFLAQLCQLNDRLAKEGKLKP

[5] = target: T2, Dual specificity protein phosphatase 3; test: VHR1 phosphatase inhibitors, biochemical (AID 1878)
[6] = target: T3, Dual specificity protein phosphatase 6 (Rattus norvegicus, UniProt Q64346); test: MKP-3 phosphatase inhibitors, primary screen, biochemical, rat enzyme, in vitro (AID 425)
T3 sequence (Q64346 whole entry): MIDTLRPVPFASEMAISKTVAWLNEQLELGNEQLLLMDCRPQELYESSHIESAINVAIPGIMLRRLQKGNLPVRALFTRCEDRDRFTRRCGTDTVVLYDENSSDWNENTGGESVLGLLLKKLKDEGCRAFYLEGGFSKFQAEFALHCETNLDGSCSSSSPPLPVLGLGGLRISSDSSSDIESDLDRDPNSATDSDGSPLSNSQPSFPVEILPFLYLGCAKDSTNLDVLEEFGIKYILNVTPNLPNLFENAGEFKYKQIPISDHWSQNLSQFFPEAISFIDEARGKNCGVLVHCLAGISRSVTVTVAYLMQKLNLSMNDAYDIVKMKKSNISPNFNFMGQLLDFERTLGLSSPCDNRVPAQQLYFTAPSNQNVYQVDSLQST

[7] = target: Beta-adrenergic receptor kinase 1 (Homo sapiens, UniProt P25098); test: aptamer displacement from bead-bound GRK2 – biochemical, cherry pick 1, bead flow cytometry, dose response (AID 504500)
Sequence of Beta-adrenergic receptor kinase 1 (P25098 whole entry): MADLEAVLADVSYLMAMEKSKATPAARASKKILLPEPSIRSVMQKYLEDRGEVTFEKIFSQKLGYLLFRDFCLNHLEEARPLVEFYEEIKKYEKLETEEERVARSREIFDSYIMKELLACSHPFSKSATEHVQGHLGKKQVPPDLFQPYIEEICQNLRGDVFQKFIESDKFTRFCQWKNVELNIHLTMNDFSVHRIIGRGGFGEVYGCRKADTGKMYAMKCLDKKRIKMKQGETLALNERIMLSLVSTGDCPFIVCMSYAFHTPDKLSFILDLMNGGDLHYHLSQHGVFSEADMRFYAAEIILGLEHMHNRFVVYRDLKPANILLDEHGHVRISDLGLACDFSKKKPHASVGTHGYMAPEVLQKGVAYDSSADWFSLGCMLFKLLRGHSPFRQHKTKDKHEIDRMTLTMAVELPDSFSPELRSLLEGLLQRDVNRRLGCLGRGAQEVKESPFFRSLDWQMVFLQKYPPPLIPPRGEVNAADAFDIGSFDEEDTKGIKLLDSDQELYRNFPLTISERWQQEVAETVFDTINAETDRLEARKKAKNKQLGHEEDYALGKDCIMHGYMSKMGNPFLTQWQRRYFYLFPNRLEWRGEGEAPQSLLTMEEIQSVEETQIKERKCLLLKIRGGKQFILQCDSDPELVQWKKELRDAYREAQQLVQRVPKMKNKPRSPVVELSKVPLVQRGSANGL

[8] = target: T4, Short transient receptor potential channel 4 (Mus musculus, UniProt Q9QUQ5); test: mouse TRPC4 channel activators, dose response, cell-based, HEK293 TRPC4/mu-opioid, Fluo-4 calcium (AID 434937); type: functional
T4 sequence (Q9QUQ5 whole entry): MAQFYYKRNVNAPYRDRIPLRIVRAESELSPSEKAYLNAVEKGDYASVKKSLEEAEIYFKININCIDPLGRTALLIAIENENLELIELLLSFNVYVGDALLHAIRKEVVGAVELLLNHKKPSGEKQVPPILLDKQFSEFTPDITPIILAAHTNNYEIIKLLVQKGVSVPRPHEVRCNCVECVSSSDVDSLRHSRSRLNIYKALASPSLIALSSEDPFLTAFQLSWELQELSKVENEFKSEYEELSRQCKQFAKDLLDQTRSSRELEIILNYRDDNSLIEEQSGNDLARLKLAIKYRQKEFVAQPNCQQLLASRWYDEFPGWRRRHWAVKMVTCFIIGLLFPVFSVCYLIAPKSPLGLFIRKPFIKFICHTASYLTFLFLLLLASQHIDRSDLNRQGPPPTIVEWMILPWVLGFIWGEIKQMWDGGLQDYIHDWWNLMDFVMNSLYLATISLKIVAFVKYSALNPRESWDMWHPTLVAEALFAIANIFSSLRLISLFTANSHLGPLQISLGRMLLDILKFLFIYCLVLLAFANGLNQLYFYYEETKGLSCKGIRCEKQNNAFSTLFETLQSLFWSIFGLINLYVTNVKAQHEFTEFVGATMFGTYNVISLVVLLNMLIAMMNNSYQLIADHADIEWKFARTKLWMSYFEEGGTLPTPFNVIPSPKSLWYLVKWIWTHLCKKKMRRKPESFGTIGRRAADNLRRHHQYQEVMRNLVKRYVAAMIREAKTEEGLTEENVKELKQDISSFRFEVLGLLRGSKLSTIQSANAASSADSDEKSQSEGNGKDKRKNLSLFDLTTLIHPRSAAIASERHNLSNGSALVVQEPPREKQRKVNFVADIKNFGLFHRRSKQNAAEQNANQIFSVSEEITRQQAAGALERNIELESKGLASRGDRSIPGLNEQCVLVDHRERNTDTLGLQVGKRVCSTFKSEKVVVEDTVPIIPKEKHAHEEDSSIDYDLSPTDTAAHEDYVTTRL

[9] = target: Cysteine protease ATG4B (Homo sapiens, UniProt Q9Y4P1); type: functional;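 further: Fluorescence-based dose-response confirmation assay measuring inhibition of ATG4B activity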
Sequence of Cysteine protease ATG4B (Q9Y4P1 whole entry): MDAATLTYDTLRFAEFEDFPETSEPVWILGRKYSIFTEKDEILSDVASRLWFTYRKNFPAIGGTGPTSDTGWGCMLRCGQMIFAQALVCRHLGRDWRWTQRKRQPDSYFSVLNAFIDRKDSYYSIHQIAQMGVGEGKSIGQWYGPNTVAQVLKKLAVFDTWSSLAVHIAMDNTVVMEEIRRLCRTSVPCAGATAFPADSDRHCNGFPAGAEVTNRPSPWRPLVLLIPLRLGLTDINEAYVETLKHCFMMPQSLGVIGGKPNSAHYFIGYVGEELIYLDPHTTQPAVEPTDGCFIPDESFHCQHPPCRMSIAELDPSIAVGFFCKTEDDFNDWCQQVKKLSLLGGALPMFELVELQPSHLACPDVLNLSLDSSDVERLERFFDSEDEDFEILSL

[10] = target: Phospholipase A2 (Homo sapiens, UniProt P04054); type: functional;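 further: confirmatory dose-response counterscreen on phospholipase A2, testing hits that came from an ultra-high-throughput screen for ATG4B inhibitors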
Sequence of Phospholipase A2 (P04054 whole entry): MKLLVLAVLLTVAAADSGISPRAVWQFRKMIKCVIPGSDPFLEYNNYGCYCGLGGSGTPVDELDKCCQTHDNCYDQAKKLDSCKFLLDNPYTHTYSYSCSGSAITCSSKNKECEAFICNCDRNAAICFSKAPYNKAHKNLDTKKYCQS

[11] = target: Multidrug resistance protein CDR1 (Candida albicans, UniProt P43071); test: CaCDR1 efflux pump inhibitors in yeast, dose response, S. cerevisiae AD1-8u, singleplex, Cherry Pick1 hits (AID 588606); type: functional
[12] = target: Multidrug resistance protein CDR2 (Candida albicans (strain SC5314 / ATCC MYA-2876) (Yeast), UniProt P78595); test: CaCDR2 efflux pump inhibitors in yeast, dose response, S. cerevisiae AD1-8u, singleplex, Cherry Pick1 hits (AID 588604); type: functional
Sequence of Multidrug resistance protein CDR2 (P78595 whole entry): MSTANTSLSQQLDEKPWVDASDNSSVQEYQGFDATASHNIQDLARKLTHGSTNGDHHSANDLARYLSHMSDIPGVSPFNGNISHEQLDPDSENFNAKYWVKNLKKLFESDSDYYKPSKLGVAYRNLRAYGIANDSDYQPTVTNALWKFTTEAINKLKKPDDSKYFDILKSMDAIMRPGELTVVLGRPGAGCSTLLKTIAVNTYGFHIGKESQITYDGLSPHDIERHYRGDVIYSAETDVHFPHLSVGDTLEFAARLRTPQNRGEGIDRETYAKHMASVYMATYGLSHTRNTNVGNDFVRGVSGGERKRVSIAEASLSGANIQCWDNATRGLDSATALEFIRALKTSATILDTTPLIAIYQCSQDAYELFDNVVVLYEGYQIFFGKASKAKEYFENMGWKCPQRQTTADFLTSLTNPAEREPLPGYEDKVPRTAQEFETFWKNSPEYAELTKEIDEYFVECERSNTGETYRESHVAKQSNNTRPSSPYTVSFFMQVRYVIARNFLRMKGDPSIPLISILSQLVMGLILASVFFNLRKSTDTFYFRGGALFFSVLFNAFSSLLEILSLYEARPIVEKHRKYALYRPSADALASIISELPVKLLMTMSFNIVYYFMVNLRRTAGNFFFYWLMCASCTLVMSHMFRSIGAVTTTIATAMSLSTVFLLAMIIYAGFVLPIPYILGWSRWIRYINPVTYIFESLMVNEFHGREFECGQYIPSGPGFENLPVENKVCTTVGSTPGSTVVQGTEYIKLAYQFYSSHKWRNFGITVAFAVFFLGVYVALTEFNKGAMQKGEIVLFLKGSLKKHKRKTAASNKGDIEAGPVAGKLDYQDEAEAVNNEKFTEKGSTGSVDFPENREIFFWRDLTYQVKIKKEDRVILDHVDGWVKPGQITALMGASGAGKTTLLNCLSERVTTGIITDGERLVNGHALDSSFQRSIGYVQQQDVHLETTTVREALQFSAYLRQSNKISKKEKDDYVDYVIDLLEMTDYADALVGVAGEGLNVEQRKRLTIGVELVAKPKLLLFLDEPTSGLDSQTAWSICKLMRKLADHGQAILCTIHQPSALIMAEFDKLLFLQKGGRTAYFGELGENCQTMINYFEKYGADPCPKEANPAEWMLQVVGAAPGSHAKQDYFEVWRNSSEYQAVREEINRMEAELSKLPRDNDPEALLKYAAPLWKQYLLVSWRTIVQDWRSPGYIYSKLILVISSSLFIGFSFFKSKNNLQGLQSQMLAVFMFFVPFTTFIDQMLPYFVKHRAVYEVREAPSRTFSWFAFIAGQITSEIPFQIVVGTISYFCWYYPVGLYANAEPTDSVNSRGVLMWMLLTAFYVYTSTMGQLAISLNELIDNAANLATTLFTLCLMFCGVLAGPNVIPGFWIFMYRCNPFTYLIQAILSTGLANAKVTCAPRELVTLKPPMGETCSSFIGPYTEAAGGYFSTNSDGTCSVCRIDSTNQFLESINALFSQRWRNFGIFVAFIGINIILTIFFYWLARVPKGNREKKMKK

[13] = target: Dual specificity tyrosine-phosphorylation-regulated kinase 1A (Rattus norvegicus, UniProt Q63470); type: biochemical, Homo sapiens
[14] = target: T5, Small ubiquitin-related modifier 1 (Homo sapiens, UniProt P63165); test: inhibitors of SUMO1 peptide binding, dose response, biochemical, fluorescence polarization, uHTS hits (AID 624382); type: functional; details: read-out: IC50_Mean
T5 sequence (P63165 whole entry): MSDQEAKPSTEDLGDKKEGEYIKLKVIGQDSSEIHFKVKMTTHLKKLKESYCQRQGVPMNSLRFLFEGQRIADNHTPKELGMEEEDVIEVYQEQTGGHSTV

[15] = target: T5, Small ubiquitin-related modifier 1; test: inhibitors of SUMO1 partner interactions, dose response, biochemical, FRET (AID 624383); type: functional; details: read-out: IC50_Mean
[16] = target: T6, Rac GTPase-activating protein 1 (Homo sapiens, UniProt Q9H0H5); test: MgcRacGAP GTPase-activating activity inhibitors, confirmation, biochemical, ADP Hunter fluorescence, primary and confirmatory (AID 624330); type: functional
T6 sequence (Q9H0H5 whole entry): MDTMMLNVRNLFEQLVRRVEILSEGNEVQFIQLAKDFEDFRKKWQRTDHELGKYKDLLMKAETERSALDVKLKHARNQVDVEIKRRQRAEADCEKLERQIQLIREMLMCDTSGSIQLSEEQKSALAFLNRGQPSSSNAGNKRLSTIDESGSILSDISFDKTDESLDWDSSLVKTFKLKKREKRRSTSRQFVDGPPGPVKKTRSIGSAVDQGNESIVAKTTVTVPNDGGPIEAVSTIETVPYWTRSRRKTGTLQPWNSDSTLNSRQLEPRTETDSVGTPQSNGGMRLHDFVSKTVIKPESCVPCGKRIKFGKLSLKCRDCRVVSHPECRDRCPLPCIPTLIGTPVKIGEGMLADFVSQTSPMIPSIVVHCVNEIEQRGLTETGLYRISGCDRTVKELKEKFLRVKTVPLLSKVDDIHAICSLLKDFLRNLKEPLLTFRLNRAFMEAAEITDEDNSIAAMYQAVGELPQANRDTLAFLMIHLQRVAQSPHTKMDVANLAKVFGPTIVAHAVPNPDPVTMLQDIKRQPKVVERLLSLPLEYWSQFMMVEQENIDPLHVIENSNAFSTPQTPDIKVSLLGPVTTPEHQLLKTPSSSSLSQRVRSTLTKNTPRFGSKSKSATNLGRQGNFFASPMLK

[17] = target: T7, Heat shock factor protein 1 (Mus musculus, UniProt P38532); test: inhibition of MG132-induced HSE-luciferase signal, confirmation, cell-based, NIH3T3, luminescence, dose retest (AID 2382); type: functional;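 further: NIH3T3 fibroblasts with HSF1-driven luciferase reporter stressed by proteasome inhibitor MG132; luminescence from HSF1-driven luciferase expression after 8 hours of MG132 stress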
T7 sequence (P38532 whole entry): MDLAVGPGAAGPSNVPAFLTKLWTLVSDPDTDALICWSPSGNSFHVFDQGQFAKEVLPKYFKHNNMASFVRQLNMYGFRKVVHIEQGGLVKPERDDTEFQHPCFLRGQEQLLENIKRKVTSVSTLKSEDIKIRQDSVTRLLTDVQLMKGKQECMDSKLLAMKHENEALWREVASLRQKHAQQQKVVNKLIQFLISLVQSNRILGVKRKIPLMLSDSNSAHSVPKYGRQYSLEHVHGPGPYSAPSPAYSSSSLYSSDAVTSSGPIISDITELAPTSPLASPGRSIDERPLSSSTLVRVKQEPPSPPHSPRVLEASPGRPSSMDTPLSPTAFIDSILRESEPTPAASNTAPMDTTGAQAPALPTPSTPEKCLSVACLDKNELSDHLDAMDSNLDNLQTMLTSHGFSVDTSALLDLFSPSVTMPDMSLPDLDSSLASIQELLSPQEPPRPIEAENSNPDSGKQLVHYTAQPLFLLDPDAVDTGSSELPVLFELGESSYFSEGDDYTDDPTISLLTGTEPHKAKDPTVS

[18] = system: Jurkat; test: antigen receptor-induced NF-kB inhibitors, dose response, Jurkat, luciferase reporter, luminescence, B- and T-cell (AID 489004); type: functional, cell-based; details: Homo sapiens;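 further: NF-kB luciferase reporter Jurkat cells stimulated with PMA plus ionomycin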
[19] = cytotoxicity in HEK-293T NF-kB-Luc cells, dose response, cytotoxicity control for B/T-cell NF-kB inhibitor project, cell-based, uHTS hits (AID 489019); type: functional;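 further: IC50 reflects cytotoxicity as loss of cell viability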
[20] = target: T8, Microphthalmia-associated transcription factor (Homo sapiens, UniProt O75030); test: TRPM1 promoter luciferase signal decrease, dose response, MITF inhibitor project, cell-based, SK-MEL-5, cherry-picked, set 3 (AID 493073); type: functional
T8 sequence (O75030 whole entry): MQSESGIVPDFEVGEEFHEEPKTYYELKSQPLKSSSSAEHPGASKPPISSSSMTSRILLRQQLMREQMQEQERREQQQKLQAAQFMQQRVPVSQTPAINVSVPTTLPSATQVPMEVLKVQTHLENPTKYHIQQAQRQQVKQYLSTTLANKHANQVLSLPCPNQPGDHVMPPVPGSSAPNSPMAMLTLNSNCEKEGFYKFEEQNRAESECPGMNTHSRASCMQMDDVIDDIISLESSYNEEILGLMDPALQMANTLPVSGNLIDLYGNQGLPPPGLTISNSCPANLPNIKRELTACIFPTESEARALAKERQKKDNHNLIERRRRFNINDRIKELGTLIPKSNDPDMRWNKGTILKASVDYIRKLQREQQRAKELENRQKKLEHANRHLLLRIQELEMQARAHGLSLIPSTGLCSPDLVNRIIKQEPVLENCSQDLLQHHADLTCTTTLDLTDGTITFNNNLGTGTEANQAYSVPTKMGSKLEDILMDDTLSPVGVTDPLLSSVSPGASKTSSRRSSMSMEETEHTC

[21] = system: A-375; test: MITF: Counter assay: A375 proliferation Measured in Cell-Based System Using Plate Reader - 2084-03_Inhibitor_Dose_DryPowder_Activity. [Related pubchem assays (depositor defined):AID488944]; type: functional; details: Homo sapiens
[22] = system: A-375; test: A375 melanoma cell viability reduction, dose response, counter-screen for MITF modulator project, cherry-pick samples, set 2 (AID 540335); type: functional, cell-based; details: Homo sapiens
[23] = target: Paired box protein Pax-8 (Homo sapiens, UniProt Q06710); test: inhibitors of PAX8-driven TPO luciferase reporter, dose response, RMG-I cells, cherry-pick (AID 687027); type: functional, cell-based;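 further: luciferase reporter driven by Pax8 target thyroperoxidase promoter measured by SteadyGlo luminescence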
Sequence of Paired box protein Pax-8 (Q06710 whole entry): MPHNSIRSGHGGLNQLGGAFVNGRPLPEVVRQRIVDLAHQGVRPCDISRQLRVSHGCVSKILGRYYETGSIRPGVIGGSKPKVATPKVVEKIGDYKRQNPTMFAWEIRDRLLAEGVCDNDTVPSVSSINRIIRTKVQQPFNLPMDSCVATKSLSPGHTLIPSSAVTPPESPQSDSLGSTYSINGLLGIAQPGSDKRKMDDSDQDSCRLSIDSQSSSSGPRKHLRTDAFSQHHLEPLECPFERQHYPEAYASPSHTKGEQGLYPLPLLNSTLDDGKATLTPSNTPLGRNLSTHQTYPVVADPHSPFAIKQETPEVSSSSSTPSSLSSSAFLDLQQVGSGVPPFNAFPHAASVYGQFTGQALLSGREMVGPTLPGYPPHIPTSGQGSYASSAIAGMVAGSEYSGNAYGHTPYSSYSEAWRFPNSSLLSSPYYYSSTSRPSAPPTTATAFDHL

[24] = PAX2 cell-based inhibition, dose response, selectivity assay for PAX8 inhibitor project, plate reader, dry powder samples (AID 743048); type: functional;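 further: HEK293 cells carrying a WT1 promoter luciferase reporter driven by expressed Pax2; potency is for inhibition of Pax2 driven reporter signal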
[25] = cytotoxicity in COV362 ovarian cancer cells, dose response, cytotoxicity control for PAX8 inhibitor project, cell-based, plate reader, dry powder, SA12 (AID 743144); type: functional
[26] = PAX5 activity inhibitors, dose response, selectivity assay for PAX8 inhibitor project, cell-based, plate reader, dry powder samples (AID 743047); type: functional;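 further: HEK293 cells carrying a Pax5 driven CD19 promoter luciferase reporter; potency of inhibitors that lower reporter luminescence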
[27] = HepG2 cell cytotoxicity, dose response, cytotoxicity control, plate reader, cherry-pick, antagonist series (AID 743416); type: functional, cell-based
[28] = IGROV1 ovarian cancer cell cytotoxicity, dose response, PAX8 inhibitor project, plate reader, dry powder samples (AID 743043); type: functional, cell-based; details: IGROV-1
[29] = LGR2 antagonists, dose response, cell-based, HEK293, CRE-luciferase reporter, cherry pick, set 2 (AID 743343); type: functional;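 further: transfected cells were stimulated with diluted bursicon conditioned medium after compound addition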
[30] = cytotoxicity in COV434 cells, dose response, cytotoxicity control for PAX8 inhibitor project, cell-based, plate reader, dry powder, SA7 (AID 743145); type: functional
[31] = cytotoxicity in OV-90 ovarian cancer cells, dose response, PAX8 inhibitor project, cell-based, plate reader, dry powder, SA8 (AID 743149); type: functional
[32] = MC4R antagonists, dose response, counter-screen for LGR2 antagonist project, cell-based, plate reader, cherry pick (AID 743444); type: functional;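 further: transfected HEK 293 cells stimulated with alpha-MSH peptide; potency of inhibitors of the alpha-MSH evoked signal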
[33] = cytotoxicity dependent on PAX8, dose response, cell-based, plate reader, dry powder (AID 743049); type: functional
[34] = HEK293 cell cytotoxicity, dose response, cytotoxicity control, plate reader, cherry-picked samples (AID 743446); type: functional, cell-based

CC(C)(C)C1CCN(C(=O)n2ncc(C(O)(c3ccccc3)c3ccccc3)n2)CC1
active: IC50 [1] 0.01 µM

O=C(N1CCCC1)n1ncc(-c2ccc(-c3ccccc3)cc2)n1
active: IC50 [2] 170 µM | IC50 [3] 0.003 µM

O=C(O)c1ccc(-c2ccc(/C=c3/sc4nc5ccccc5n4c3=O)o2)cc1Cl
123 µM (not active): IC50 [6]
inactive: EC50 [7] 9.71 µM | IC50 [10] 21.9 µM | IC50 [14] > 66.6 µM
active: IC50 [4] 5.86 µM | IC50 [5] 2.89 µM | EC50 [8] 5.96 µM | IC50 [9] 12.2 µM | EC50 [11] 12.2 µM | EC50 [12] 20.3 µM | AC50 [13] 2 µM | IC50 [15] 11.5 µM | IC50 [16] 48.4 µM

O=C(/C=C/c1ccccc1)Nc1cccc(C(=O)O)c1
inactive: IC50 [19] > 80 µM | AC50 [27] > 52 µM | AC50 [30] > 100 µM | AC50 [31] > 100 µM | AC50 [34] > 52 µM
active: EC50 [17] 1.73 µM | IC50 [18] 1.4 µM | AC50 [20] 1.52 µM | AC50 [21] > 35 µM | AC50 [22] > 35 µM | AC50 [23] 4.06 µM | AC50 [24] 2.07 µM | AC50 [25] 77.2 µM | AC50 [26] 2.67 µM | AC50 [28] 49 µM | AC50 [29] 0.833 µM | AC50 [32] 0.592 µM | AC50 [33] 32.2 µM
